Experimental data from patent US20250171392A1, “CRYSTALLIZATION OF 4-HYDROXYACETOPHENONE FROM ETHANOL AND ETHYL ACETATE” (SYMRISE AG, priority 2022, published 2025).

What was measured:
Aspergillus brasiliensis = settings: when used in cosmetics; Daily Chemical Industry: 2015, 45:269; cited from earlier work
Pseudomonas aeruginosa = settings: when used in cosmetics; Daily Chemical Industry: 2015, 45:269; cited from earlier work
[1] = Solubility testing (dissolution time) of purified 4-hydroxyacetophenone (0.5 wt.-%) in cold water; assay type: physicochemical; settings: for Time needed until purified 4-HAP is fully dissolved: 0.5 wt.-% 4-HAP, 99.50 wt.-% water, solvent at 17.5-18.5° C., stirred at 500 rpm at 20-21° C.
[2] = Solubility testing (dissolution time) of purified 4-hydroxyacetophenone (0.5 wt.-%) in cold 1,2-pentanediol (5 wt.-%) in water; assay type: physicochemical; settings: for Time needed until purified 4-HAP is fully dissolved: 0.5 wt.-% 4-HAP, 5 wt.-% 1,2-pentanediol, 94.50 wt.-% water, solvent at 17.5-18.5° C., stirred at 500 rpm at 20-21° C.
[3] = Solubility testing (dissolution time) of purified 4-hydroxyacetophenone (0.5 wt.-%) in cold 1,2-pentanediol (3 wt.-%) and glycerin (5 wt.-%) in water; assay type: physicochemical; settings: for Time needed until purified 4-HAP is fully dissolved: 0.5 wt.-% 4-HAP, 3 wt.-% 1,2-pentanediol, 5 wt.-% glycerin (99.5%), 91.50 wt.-% water, solvent at 17.5-18.5° C., stirred at 500 rpm at 20-21° C.

SMILES	ability to kill Aspergillus brasiliensis (Aspergillus brasiliensis)	ability to restrain Pseudomonas aeruginosa (Pseudomonas aeruginosa)	Time needed until purified 4-HAP is fully dissolved [1]	dissolution time in cold water (in words, compared with the other samples) [1]	Time needed until purified 4-HAP is fully dissolved [2]	dissolution time in cold 1,2-pentanediol (5 wt.-%) in water (in words, compared with the other samples) ([2]; cold 1,2-pentanediol (5 wt.-%) in water)	Time needed until purified 4-HAP is fully dissolved [3]	dissolution time in cold 1,2-pentanediol (3 wt.-%) and glycerin (5 wt.-%) in water (in words, compared with the other samples) [3]
CC(=O)c1ccc(O)cc1 [4-hydroxyacetophenone]	great ability to kill	a certain ability to restrain	–	–	–	–	–	–
CC(=O)c1ccc(O)cc1 [Example 1a, 4-hydroxyacetophenone]	–	–	24 min	by far the shortest dissolution time	12 min	by far the shortest dissolution time	15 min	by far the shortest dissolution time
CC(=O)c1ccc(O)cc1 [Example 1b, 4-hydroxyacetophenone]	–	–	22 min	by far the shortest dissolution time	–	–	19 min	by far the shortest dissolution time
CC(=O)c1ccc(O)cc1 [Example 2, 4-hydroxyacetophenone]	–	–	115 min	–	56 min	–	53 min	–
CC(=O)c1ccc(O)cc1 [Example 3, 4-hydroxyacetophenone]	–	–	35 min	–	22 min	–	30 min	–
CC(=O)c1ccc(O)cc1 [Example 4, 4-hydroxyacetophenone]	–	–	41 min	–	33 min	–	24 min	–
CC(=O)c1ccc(O)cc1 [Example 5, 4-hydroxyacetophenone]	–	–	35 min	–	26 min	–	22 min	–
CC(=O)c1ccc(O)cc1 [Example 6, 4-hydroxyacetophenone]	–	–	–	–	35 min	–	28 min	–
CC(=O)c1ccc(O)cc1 [Example 7, 4-hydroxyacetophenone]	–	–	51 min	–	36 min	–	33 min	–
CC(=O)c1ccc(O)cc1 [Example 8, 4-hydroxyacetophenone]	–	–	44 min	–	29 min	–	27 min	–
CC(=O)c1ccc(O)cc1 [Example 9, 4-hydroxyacetophenone]	–	–	29 min	–	17 min	–	21 min	–
CC(=O)c1ccc(O)cc1 [Example 10, 4-hydroxyacetophenone]	–	–	67 min	–	–	–	42 min	–
